Laboratory results reported in patent US20250009742A1 (priority 2021, published 2025).

Tested on: intracellular HBV DNA
Test: Real-time PCR for intracellular HBV DNA in HepAD38 cells
Type: cell-based
Conditions: 65 hours treatment
Experimental: HepAD38 cells were cultured in DMEM medium (Welgene) supplemented with 200 unit/mL penicillin, 200 μg/mL streptomycin, and 10% FBS. During maintenance and passage, the cells were cultured together with 0.4 μg/mL tetracycline. Two days before the treatment with compounds for inducing HBV replication was started, the medium was replaced with a tetracycline-free complete growth medium. […]
HepAD38 cells were treated with a compound for 65 hours and then recovered, and intracellular HBV DNA was extracted therefrom according to the protocol in the DNeasy Blood & Tissue Kit (Qiagen). The primers and probes used to quantify HBV DNA were 5′-[…]-3′, 5′-[…]-3′, and 5′-/56-FAM/TGT CCT GGT/ZEN/TAT CGC TGG ATG TGT CT/3IABkFQ/-3′. The HBV DNA was amplified by real-time PCR assay using LightCycler 480 (Roche) (J. Virol., 2018, 92(16):e00339-18). All of the processes were confirmed in duplicate.

[1] = Hepatitis B virus, HePAD38, 65 h

Compound | IC50 [1] | IC50
COc1ncc(N(Cc2cc(C#N)[nH]n2)C(=O)Nc2ccc(F)c(C#N)c2)cn1 [Example 157, 1-((5-cyano-1H-pyrazol-3-yl)methyl)-3-(3-cyano-4-fluorophenyl)-1-(2-methoxypyrimidin-5-yl)urea] | 66 nM | –
COc1ncc(N(Cc2cc(C(F)(F)F)[nH]n2)C(=O)Nc2ccnc(C#N)c2F)cn1 [Example 158, 3-(2-cyano-3-fluoropyridin-4-yl)-1-(2-methoxypyrimidin-5-yl)-1-((5-(trifluoromethyl)-1H-pyrazol-3-yl)methyl)urea] | 230 nM | –
COc1ncc(N(Cc2cc(C(F)(F)F)[nH]n2)C(=O)Nc2ccc(F)c(C#N)n2)cn1 [Example 160, 3-(6-cyano-5-fluoropyridin-2-yl)-1-(2-methoxypyrimidin-5-yl)-1-((5-(trifluoromethyl)-1H-pyrazol-3-yl)methyl)urea] | 430 nM | –
COc1ncc(N(Cc2cc(C(F)(F)F)[nH]n2)C(=O)Nc2cc(C#N)c(F)cn2)cn1 [Example 161, 3-(4-cyano-5-fluoropyridin-2-yl)-1-(2-methoxypyrimidin-5-yl)-1-((5-(trifluoromethyl)-1H-pyrazol-3-yl)methyl)urea] | 74 nM | –
COC12CC(N(Cc3cc(C(F)(F)F)[nH]n3)C(=O)Nc3ccc(F)c(C#N)c3)(C1)C2 [Example 162, 3-(3-cyano-4-fluorophenyl)-1-(3-methoxybicyclo[1.1.1]pentan-1-yl)-1-((5-(trifluoromethyl)-1H-pyrazol-3-yl)methyl)urea] | 36 nM | –
COc1ncc(N(Cc2cc(C(F)(F)F)[nH]n2)C(=O)Nc2ccc(Cl)nc2Cl)cn1 [Example 165, 3-(2,6-dichloropyridin-3-yl)-1-(2-methoxypyrimidin-5-yl)-1-((5-(trifluoromethyl)-1H-pyrazol-3-yl)methyl)urea] | > 1100 nM | –
COc1ncc(N(Cc2cc(C(F)F)[nH]n2)C(=O)Nc2ccc(Cl)nc2Cl)cn1 [Example 166, 3-(2,6-dichloropyridin-3-yl)-1-((5-(difluoromethyl)-1H-pyrazol-3-yl)methyl)-1-(2-methoxypyrimidin-5-yl)urea] | > 1100 nM | –
COc1ncc(N(Cc2cc(C(F)(F)F)[nH]n2)C(=O)Nc2ccc(C#N)c(C#N)c2)cn1 [Example 167, 3-(3,4-dicyanophenyl)-1-(2-methoxypyrimidin-5-yl)-1-((5-(trifluoromethyl)-1H-pyrazol-3-yl)methyl)urea] | 190 nM | –
COc1ncc(N(Cc2cc(C(F)(F)F)[nH]n2)C(=O)Nc2nc(F)ccc2F)cn1 [Example 169, 3-(3,6-difluoropyridin-2-yl)-1-(2-methoxypyrimidin-5-yl)-1-((5-(trifluoromethyl)-1H-pyrazol-3-yl)methyl)urea] | > 1100 nM | –
COc1ncc(N(Cc2cc(C(F)(F)F)[nH]n2)C(=O)Nc2ccc(F)c(F)n2)cn1 [Example 170, 3-(5,6-difluoropyridin-2-yl)-1-(2-methoxypyrimidin-5-yl)-1-((5-(trifluoromethyl)-1H-pyrazol-3-yl)methyl)urea] | 300 nM | –
COc1ncc(N(Cc2cc(C(F)(F)F)[nH]n2)C(=O)Nc2cnc(F)c(F)c2)cn1 [Example 171, 3-(5,6-difluoropyridin-3-yl)-1-(2-methoxypyrimidin-5-yl)-1-((5-(trifluoromethyl)-1H-pyrazol-3-yl)methyl)urea] | 280 nM | –
COc1ncc(N(Cc2cc(C(F)(F)F)[nH]n2)C(=O)Nc2ccnc(C(F)F)c2)cn1 [Example 175, 3-(2-(difluoromethyl)pyridin-4-yl)-1-(2-methoxypyrimidin-5-yl)-1-((5-(trifluoromethyl)-1H-pyrazol-3-yl)methyl)urea] | 41 nM | –
COc1ncc(N(Cc2cc(C(F)(F)F)[nH]n2)C(=O)Nc2cccc(C(F)F)n2)cn1 [Example 177, 3-(6-(difluoromethyl)pyridin-2-yl)-1-(2-methoxypyrimidin-5-yl)-1-((5-(trifluoromethyl)-1H-pyrazol-3-yl)methyl)urea] | 100 nM | –
COc1ncc(N(Cc2cc(C(F)(F)F)[nH]n2)C(=O)Nc2cccc(F)n2)cn1 [Example 183, 3-(6-fluoropyridin-2-yl)-1-(2-methoxypyrimidin-5-yl)-1-((5-(trifluoromethyl)-1H-pyrazol-3-yl)methyl)urea] | > 1100 nM | –
COc1ncc(N(Cc2cc(C(F)(F)F)[nH]n2)C(=O)NC23CC(F)(C2)C3)cn1 [Example 185, 3-(3-fluorobicyclo[1.1.1]pentan-1-yl)-1-(2-methoxypyrimidin-5-yl)-1-((5-(trifluoromethyl)-1H-pyrazol-3-yl)methyl)urea] | > 1100 nM | –
COc1ncc(N(Cc2cc(C(F)F)[nH]n2)C(=O)Nc2ccc(F)c(C(F)F)c2)cn1 [Example 190, 1-((5-(difluoromethyl)-1H-pyrazol-3-yl)methyl)-3-(3-(difluoromethyl)-4-fluorophenyl)-1-(2-methoxypyrimidin-5-yl)urea] | 20 nM | –
COc1ccc(N(Cc2cc(C(F)F)[nH]n2)C(=O)Nc2ccc(F)c(C(F)F)c2)cn1 [Example 191, 1-((5-(difluoromethyl)-1H-pyrazol-3-yl)methyl)-3-(3-(difluoromethyl)-4-fluorophenyl)-1-(6-methoxypyridin-3-yl)urea] | 24 nM | –
COc1ccc(N(Cc2cc(C(F)(F)F)[nH]n2)C(=O)Nc2ccc(F)c(C(F)F)c2)nn1 [Example 200, 3-(3-(difluoromethyl)-4-fluorophenyl)-1-(6-methoxypyridazin-3-yl)-1-((5-(trifluoromethyl)-1H-pyrazol-3-yl)methyl)urea] | > 1100 nM | –
COc1cc(N(Cc2cc(C(F)(F)F)[nH]n2)C(=O)Nc2ccc(F)c(C(F)F)c2)cnn1 [Example 203, 3-(3-(difluoromethyl)-4-fluorophenyl)-1-(6-methoxypyridazin-4-yl)-1-((5-(trifluoromethyl)-1H-pyrazol-3-yl)methyl)urea] | 13 nM | –
COc1ncc(N(Cc2cc(C(F)(F)F)[nH]n2)C(=O)Nc2ccc(F)c(C(F)F)n2)cn1 [Example 204, 3-(6-(difluoromethyl)-5-fluoropyridin-2-yl)-1-(2-methoxypyrimidin-5-yl)-1-((5-(trifluoromethyl)-1H-pyrazol-3-yl)methyl)urea] | – | 36 nM
COc1ncc(N(Cc2n[nH]c(C(F)(F)F)c2CC(C)(C)O)C(=O)Nc2ccc(F)c(C(F)F)c2)cn1 [Example 205, 3-(3-(difluoromethyl)-4-fluorophenyl)-1-((4-(2-hydroxy-2-methylpropyl)-5-(trifluoromethyl)-1H-pyrazol-3-yl)methyl)-1-(2-methoxypyrimidin-5-yl)urea] | > 1100 nM | –
COc1ncc(N(Cc2n[nH]c(C(F)F)c2CC(C)(C)O)C(=O)Nc2ccc(F)c(C(F)F)c2)cn1 [Example 208, 1-((5-(difluoromethyl)-4-(2-hydroxy-2-methylpropyl)-1H-pyrazol-3-yl)methyl)-3-(3-(difluoromethyl)-4-fluorophenyl)-1-(2-methoxypyrimidin-5-yl)urea] | > 1100 nM | –
COc1ncc(N(Cc2cc(C#N)[nH]n2)C(=O)Nc2ccc(F)c(C(F)F)c2)cn1 [Example 209, 1-((5-cyano-1H-pyrazol-3-yl)methyl)-3-(3-(difluoromethyl)-4-fluorophenyl)-1-(2-methoxypyrimidin-5-yl)urea] | 16 nM | –
COc1ncc(N(Cc2cc(C(F)F)[nH]n2)C(=O)Nc2ccc(F)c(C(F)F)n2)cn1 [Example 210, 1-((5-(difluoromethyl)-1H-pyrazol-3-yl)methyl)-3-(6-(difluoromethyl)-5-fluoropyridin-2-yl)-1-(2-methoxypyrimidin-5-yl)urea] | – | 130 nM
